What follows are compounds tested on M-NFS-60 cells (assay: M-NFS-60 cell in vitro assay (CCK, 48 h, M-CSF factor medium)). Settings: M-NFS-60 cells; read-out: M-NFS-60cellassay IC50.
Format: cell-based
Experimental: To determine the inhibitory activity of compounds on M-NFS-60 cells.
• M-NFS-60 cell line (ATCC, Cat. No.: CRL-1838) • RPMI-1640 medium (Gibco, domestic subpackage, Cat. No.: C11875500BT) • Recombinant Mouse CSF1/M-CSF (Sino Biological Inc., Cat. No.: 51112-MNAH) • PAN/Serum (BioTECH, Cat. No.: P30-2602) • Trypsin/0.05% Trypsin-EDTA (Gibco, Cat. No.: 25300-062) • 0.4% Trypan Blue (Sigma, Cat. No.: T8154-20 ml) • Penicillin-Streptomycin (Hyclone, Cat. No.: SV30010) • DMSO (Solarbio, Cat. No.: D8371) • PBS (Solarbio, Cat. No.: P1020) • CCK (AbMole BioScience, Cat. No.: M4839-500Tests)
• 1) M-CSF factor stock solution: take 10 μg of powdered m-CSF factor, add 0.4 ml of saline, formulate 25 ug/ml and store at −80° C. • 2) M-CSF factor (25 ng/ml) medium: • 1640 (Gibco)+10% PAN+100×Penicillin-Streptomycin+100×M-CSF stock solution • 3) Complete medium: • 1640 (Gibco)+10% PAN+100×Penicillin-Streptomycin • 4) Compound preparation: 2-3 mg of the compound was added to DMSO to formulate a 30 mM stock solution, −80° C. refrigerator storage
• 1) Cell resuscitation: the frozen cells in the cryovial were thawed rapidly by shaking in a 37° C. water bath, then 4 mL of medium was added. After mixing evenly, they were centrifuged at 125×g for 5 min, and the supernatant was discarded. The cells were resuspended and transferred to the culture flasks, and were cultured in a 5% CO2 fully saturated humidity incubator. • 2) Cell passaging: M-NFS-60 cells are semi-suspension cells, which were collected directly in a 15 mL centrifuge tube, centrifuged at 125×g for 5 min. and the supernatant was discarded. The cells were resuspended and passaged into new culture flasks at a ratio of 1:5 to 1:10. • 3) After the newly resuscitated cells were passaged 1-2 times for cell stabilization, compound inhibition assays were started when the cells were in the logarithmic growth phase. • (a) Cell collection and counting: the same as the cell passaging step, centrifuge in two tubes, one tube with M-CSF factor medium to resuspend the cells, the other tube with complete medium to resuspend the cells. Take 10 μL of cell suspension in each tube, and count the cells by Tepan blue staining. • (b) Dilute the cell solution according to the concentration of inoculated cells respectively, the concentration of M-NFS-60 cells inoculated with factor was 5.56×10^4 cells/mL, and the concentration of inoculated without factor was 5×10^4 cells/mL. • (c) Seed plate: 384 well plate inoculated with M-NFS-60 cells, 36 uL/well, triplicate wells, the number of inoculated cells was equivalent to 2000 cells/well, set with blank control, factor free negative control, normal control, DMSO control and experimental wells. The cells were placed in a 5% CO2 fully saturated humidity incubator for 4 h. • (d) Sampling compounds: 96 well plates were used for compound preparation. The compound solution prepared in advance was diluted to corresponding gradient concentration with DMSO. An appropriate amount of the diluted solution in the previous step was added to an equal volume of factor containing medium. The 96 well plates were centrifuged at 1000 rpm for 5 min, which played the role of defoaming and spinning down droplets and condensation. Remove the 384 well plate from the incubator, add the diluted compound solution into each well sequentially, 4 μL/well; DMSO wells and normal wells were added with corresponding factor containing medium, 4 μL/well. Then it was put into CO2 incubator for 48 h. • (e) After incubation for 48 h, CCK was added to each well, 4 uL, and the plates were placed in the incubator for another 2 h, and then the OD (optical density) value at 450 nm was measured by microplate reader.
The IC50 values for each test compound were fitted using professional graphing and analysis software.

Row | Structure (SMILES) | IC50 [nM]
1 | Cc1cccc(C(=O)Nc2c(F)ccc3c2CC[C@@H]3Nc2cncc(-c3cnn(C)c3)c2)c1 (stereo in doubt) [Compound 43, N-(5-fluoro-1-((5-(1-methyl-1H-pyrazol-4-yl)pyridin-3-yl)amino)-2,3-dihydro-1H-inden-4-yl)-3-methylbenzamide] | 200 to 500
2 | COc1cccc(C(=O)Nc2cccc3c2CCC3Oc2cc(-c3cnn(C)c3)cnc2N)c1 (stereo not drawn) [Compound 1, N-(1-((2-amino-5-(1-methyl-1H-pyrazol-4-yl)pyridin-3-yl)oxy)-2,3-dihydro-1H-inden-4-yl)-3-methoxybenzamide] | 50 to 200
3 | COc1cccc(C(=O)Nc2cccc3c2CCC3Oc2cc(Br)cnc2N)c1 (stereo not drawn) [Compound 1f, N-(1-((2-amino-5-bromopyridin-3-yl)oxy)-2,3-dihydro-1H-inden-4-yl)-3-methoxybenzamide] | 50 to 200
4 | COc1cccc(C(=O)Nc2cccc3c2CCCC3Oc2cc(-c3cnn(C)c3)cnc2N)c1 (stereo not drawn) [Compound 2a] | > 500
5 | COc1cccc(C(=O)Nc2cccc3c2OCCC3Oc2cc(Br)cnc2N)c1 (stereo not drawn) [Compound 2b] | > 500
6 | COc1cccc(C(=O)Nc2cccc3c2OCCC3Oc2cc(-c3cnn(C)c3)cnc2N)c1 (stereo not drawn) [Compound 2c] | 200 to 500
7 | COc1cccc(C(=O)Nc2cccc3c2CC[C@H]3Oc2cc(-c3cnn(C)c3)cnc2N)c1 [Compound 3a] | > 500
8 | COc1cccc(C(=O)Nc2cccc3c2CC[C@@H]3Oc2cc(-c3cnn(C)c3)cnc2N)c1 [Compound 3b] | < 50
9 | Cn1cc(-c2cnc(N)c(O[C@H]3CCc4c(NC(=O)c5ccc6c(c5)OC(F)(F)O6)cccc43)c2)cn1 [Compound 3c] | 50 to 200
10 | Cn1cc(-c2cnc(N)c(O[C@H]3CCc4c(NC(=O)c5csc6ccccc56)cccc43)c2)cn1 [Compound 3d] | < 50
11 | Cn1cc(-c2cnc(N)c(O[C@H]3CCc4c(NC(=O)c5cccc(C(F)(F)F)c5)cccc43)c2)cn1 [Compound 3e] | < 50
12 | Cc1ccc(C(=O)Nc2cccc3c2CC[C@@H]3Oc2cc(-c3cnn(C)c3)cnc2N)cc1C [Compound 3f] | < 50
13 | Cn1cc(-c2cnc(N)c(O[C@H]3CCc4c(NC(=O)c5cccc(C6CC6)c5)cccc43)c2)cn1 [Compound 3g] | < 50
14 | Cn1cc(-c2cnc(N)c(O[C@H]3CCc4c(NC(=O)c5cccc(CN6CCCCC6)c5)cccc43)c2)cn1 [Compound 3h] | > 500
15 | Cn1cc(-c2cnc(N)c(O[C@H]3CCc4c(NC(=O)c5cccc(CN6CCCC6)c5)cccc43)c2)cn1 [Compound 3i] | > 500
16 | CN(C)Cc1cccc(C(=O)Nc2cccc3c2CC[C@@H]3Oc2cc(-c3cnn(C)c3)cnc2N)c1 [Compound 3j] | > 500
17 | Cn1cc(-c2cnc(N)c(O[C@H]3CCc4c(C(=O)Nc5cccc(CN6CCCCC6)c5)cccc43)c2)cn1 [Compound 5b] | 50 to 200
18 | Cn1cc(-c2cnc(N)c(O[C@H]3CCc4c(C(=O)Nc5cccc(CN6CCCC6)c5)cccc43)c2)cn1 [Compound 5c] | 50 to 200
19 | CN(C)Cc1ccc(NC(=O)c2cccc3c2CC[C@@H]3Oc2cc(-c3cnn(C)c3)cnc2N)cc1 [Compound 5d] | < 50
20 | CN(C)Cc1cccc(NC(=O)c2cccc3c2CC[C@@H]3Oc2cc(-c3cnn(C)c3)cnc2N)c1 [Compound 5e] | < 50
21 | Cc1cc(C(=O)Nc2cccc3c2CC[C@@H]3Nc2cc(-c3cnn(C)c3)cnc2N)ccc1F [Compound 6, (S)—N-(1-((2-amino-5-(1-methyl-1H-pyrazol-4-yl)pyridin-3-yl)amino)-2,3-dihydro-1H-inden-4-yl)-4-fluoro-3-methylbenzamide] | 50 to 200

Row | Structure (SMILES) | IC50 [nM]
22 | Nc1ncc(Cl)cc1O[C@H]1CCc2c(C(=O)Nc3cccc(C4CC4)c3)cccc21 [Compound 7, (S)-1-((2-amino-5-chloropyridin-3-yl)oxy)-N-(3-cyclopropylphenyl)-2,3-dihydro-1H-indene-4-carboxamide] | < 50
23 | Cc1cccc(C(=O)Nc2cccc3c2CCC3Nc2cncc(-c3cnn(C)c3)c2)c1 (stereo not drawn) [Compound 8, 3-methyl-N-(1-((5-(1-methyl-1H-pyrazol-4-yl)pyridin-3-yl)amino)-2,3-dihydro-1H-inden-4-yl)benzamide] | < 50
24 | Cc1cccc(C(=O)Nc2cccc3c2CCC3Nc2cncc(Br)c2)c1 (stereo not drawn) [Compound 8d, N-(1-((5-bromopyridin-3-yl)amino)-2,3-dihydro-1H-inden-4-yl)-3-methylbenzamide] | 50 to 200
25 | Cn1cc(-c2cncc(NC3CCc4c(NC(=O)c5ccc6c(c5)OC(F)(F)O6)cccc43)c2)cn1 (stereo not drawn) [Compound 9, 2,2-difluoro-N-(1-((5-(1-methyl-1H-pyrazol-4-yl)pyridin-3-yl)amino)-2,3-dihydro-1H-inden-4-yl)benzo[d][1,3]dioxole-5-carboxamide] | 50 to 200
26 | O=C(Nc1cccc(C2CC2)c1)c1cccc2c1CC[C@@H]2Nc1cncc(Br)c1 [Compound 10, (S)-1-((5-bromopyridin-3-yl)amino)-N-(3-cyclopropylphenyl)-2,3-dihydro-1H-indene-4-carboxamide] | 50 to 200
27 | O=C(Nc1cccc2c1CC[C@@H]2Nc1cncc(Br)c1)c1cccc(C2CC2)c1 [Compound 11, (S)—N-(1-((5-bromopyridin-3-yl)amino)-2,3-dihydro-1H-inden-4-yl)-3-cyclopropylbenzamide] | 50 to 200
28 | Cc1cccc(C(=O)Nc2cccc3c2CC[C@@H]3Nc2cncc(-c3cnn(C)c3)c2)c1 [Compound 12, (S)-3-methyl-N-(1-((5-(1-methyl-1H-pyrazol-4-yl)pyridin-3-yl)amino)-2,3-dihydro-1H-inden-4-yl)benzamide] | < 50
29 | Cc1ccc(F)c(NC(=O)c2cccc3c2CC[C@@H]3Nc2cncc(-c3cnn(C)c3)c2)c1 [Compound 14ac] | < 50
30 | Cn1cc(-c2cncc(N[C@H]3CCc4c(C(=O)Nc5ccc(Cl)c(C(F)(F)F)c5)cccc43)c2)cn1 [Compound 14ad] | < 50
31 | Cn1cc(-c2cncc(N[C@H]3CCc4c(C(=O)Nc5ccccc5F)cccc43)c2)cn1 [Compound 14ae] | < 50
32 | COc1cc(NC(=O)c2cccc3c2CC[C@@H]3Nc2cncc(-c3cnn(C)c3)c2)ccc1F [Compound 14af] | < 50
33 | Cn1cc(-c2cncc(N[C@H]3CCc4c(C(=O)Nc5nn(C)c6ccccc56)cccc43)c2)cn1 [Compound 14ag] | < 50
34 | CN1CCN(c2cccc(NC(=O)c3cccc4c3CC[C@@H]4Nc3cncc(-c4cnn(C)c4)c3)c2)CC1 [Compound 14ai] | 50 to 200
35 | CN1CCN(Cc2ccc(NC(=O)c3cccc4c3CC[C@@H]4Nc3cncc(-c4cnn(C)c4)c3)cc2)CC1 [Compound 14aj] | 50 to 200
36 | Cn1cc(-c2cncc(N[C@H]3CCc4c(C(=O)Nc5cncc(C(F)(F)F)c5)cccc43)c2)cn1 [Compound 14ak] | < 50
37 | Cn1cc(-c2cncc(N[C@H]3CCc4c(C(=O)Nc5ccc(C(F)(F)F)cc5)cccc43)c2)cn1 [Compound 14al] | < 50
38 | COc1ccc(NC(=O)c2cccc3c2CC[C@@H]3Nc2cncc(-c3cnn(C)c3)c2)cc1 [Compound 14am] | < 50
39 | Cn1cc(-c2cncc(N[C@H]3CCc4c(C(=O)Nc5ccc(Cl)cc5)cccc43)c2)cn1 [Compound 14an] | < 50
40 | Cn1cc(-c2cncc(N[C@H]3CCc4c(C(=O)Nc5ccc(Cl)c(F)c5)cccc43)c2)cn1 [Compound 14ao] | < 50
41 | CN1CCN(c2ccc(NC(=O)c3cccc4c3CC[C@@H]4Nc3cncc(-c4cnn(C)c4)c3)cc2)CC1 [Compound 14aq] | 200 to 500
42 | CN1CCN(Cc2cccc(NC(=O)c3cccc4c3CC[C@@H]4Nc3cncc(-c4cnn(C)c4)c3)c2)CC1 [Compound 14ar] | 200 to 500

Source: patent publication US20260125359A1, “HETEROARYL COMPOUNDS AS MULTI-TARGET PROTEIN KINASE INHIBITORS” (FUJIAN HAIXI PHARMACEUTICALS CO., LTD., priority 2023, published 2026)
